{"source": "paper PMC5218480", "about": "(PLoS ONE, 2017)", "system": "MV-4-11 cells", "experiment": "Gene expression microarray analysis (Affymetrix PrimeView) and GSEA", "assay_type": "cell-based, human", "design": "RFU PODN (11730768_x_at) / Fold change /veh PODN (11730768_x_at) / RFU LINC00158 (11744669_a_at) / Fold change /veh LINC00158 (11744669_a_at) / RFU DUSP10 (11751237_a_at) / Fold change /veh DUSP10 (11751237_a_at) / RFU ID3 (11757404_x_at) / Fold change /veh ID3 (11757404_x_at) / RFU PLEKHG5 (11737974_s_at) / Fold change /veh PLEKHG5 (11737974_s_at) / RFU LRRC4B (11730491_at) / Fold change /veh LRRC4B (11730491_at) / RFU GIMAP4 (11747438_a_at) / Fold change /veh GIMAP4 (11747438_a_at) / RFU KRT8 (11758183_x_at) / Fold change /veh KRT8 (11758183_x_at) / RFU CNN1 (11734310_a_at) / Fold change /veh CNN1 (11734310_a_at) / RFU VPS37D (11726825_at) / Fold change /veh VPS37D (11726825_at) / RFU C10orf10 (11716522_x_at) / Fold change /veh C10orf10 (11716522_x_at) / RFU KIR2DL2 /// KIR2DL4 /// KIR2DL5A /// KIR2DL5B /// KIR2DS1 /// KIR2DS2 /// KIR2DS3 /// KIR2DS4 /// KIR3DL3 /// KIR3DL3 /// KIR3DS1 (11738374_at) / Fold change /veh KIR2DL2 /// KIR2DL4 /// KIR2DL5A /// KIR2DL5B /// KIR2DS1 /// KIR2DS2 /// KIR2DS3 /// KIR2DS4 /// KIR3DL3 /// KIR3DL3 /// KIR3DS1 (11738374_at) / RFU C1QL1 (11718748_at) / Fold change /veh C1QL1 (11718748_at) / RFU TMPRSS4 (11747572_a_at) / Fold change /veh TMPRSS4 (11747572_a_at) / RFU HAMP (11756126_x_at) / Fold change /veh HAMP (11756126_x_at) / RFU RNFT2 (11725882_a_at) / Fold change /veh RNFT2 (11725882_a_at) / RFU NR4A2 (11747474_a_at) / Fold change /veh NR4A2 (11747474_a_at) / RFU ABCC12 (11746883_a_at) / Fold change /veh ABCC12 (11746883_a_at) / RFU TMEM136 (11760407_x_at) / Fold change /veh TMEM136 (11760407_x_at) / RFU CLDN22 /// WWC2 (11732394_at) / Fold change /veh CLDN22 /// WWC2 (11732394_at) / RFU HLA-DPB1 (11760878_x_at) / Fold change /veh HLA-DPB1 (11760878_x_at) / RFU SPINT1 (11716480_a_at) / Fold change /veh SPINT1 (11716480_a_at) / RFU GAP43 (11754022_s_at) / Fold change /veh GAP43 (11754022_s_at) / RFU A4GNT (11735810_at) / Fold change /veh A4GNT (11735810_at) / RFU PRB3 (11715151_x_at) / Fold change /veh PRB3 (11715151_x_at) / RFU TUBB4B (11761932_at) / Fold change /veh TUBB4B (11761932_at) / RFU CAPN14 (11732068_a_at) / Fold change /veh CAPN14 (11732068_a_at) / RFU TMCC2 (11721928_a_at) / Fold change /veh TMCC2 (11721928_a_at) / RFU IRGQ (11745062_a_at) / Fold change /veh IRGQ (11745062_a_at) / RFU FAM174B (11720279_a_at) / Fold change /veh FAM174B (11720279_a_at) / RFU TMPRSS4 (11748680_a_at) / Fold change /veh TMPRSS4 (11748680_a_at) / RFU FAM212B (11763350_a_at) / Fold change /veh FAM212B (11763350_a_at) / RFU PLEKHG5 (11743358_a_at) / Fold change /veh PLEKHG5 (11743358_a_at) / RFU ZSCAN30 (11745921_a_at) / Fold change /veh ZSCAN30 (11745921_a_at) / RFU CMKLR1 (11741424_a_at) / Fold change /veh CMKLR1 (11741424_a_at) / RFU LOC101060620 /// MAPK8IP1 (11723275_at) / Fold change /veh LOC101060620 /// MAPK8IP1 (11723275_at) / RFU SPTSSB (11747773_x_at) / Fold change /veh SPTSSB (11747773_x_at) / RFU PRSS12 (11739890_at) / Fold change /veh PRSS12 (11739890_at) / RFU BIN1 (11741810_x_at) / Fold change /veh BIN1 (11741810_x_at) / RFU WNT11 (11732464_a_at) / Fold change /veh WNT11 (11732464_a_at) / RFU C10orf10 (11716521_a_at) / Fold change /veh C10orf10 (11716521_a_at) / RFU C5orf56 (11738089_at) / Fold change /veh C5orf56 (11738089_at) / RFU CYB561 (11721691_x_at) / Fold change /veh CYB561 (11721691_x_at) / RFU ANKRD19P (11752326_a_at) / Fold change /veh ANKRD19P (11752326_a_at) / RFU OR2T12 /// OR2T33 /// OR2T8 (11738714_s_at) / Fold change /veh OR2T12 /// OR2T33 /// OR2T8 (11738714_s_at) / RFU VCAN (11748164_a_at) / Fold change /veh VCAN (11748164_a_at) / RFU JSRP1 (11732532_at) / Fold change /veh JSRP1 (11732532_at) / RFU KRTAP10-11 (11738290_x_at) / Fold change /veh KRTAP10-11 (11738290_x_at) / RFU MYO3A (11730013_a_at) / Fold change /veh MYO3A (11730013_a_at) / RFU EBF3 (11725865_a_at) / Fold change /veh EBF3 (11725865_a_at) / RFU CAMK2N1 (11719241_x_at) / Fold change /veh CAMK2N1 (11719241_x_at) / RFU C5orf56 (11738088_a_at) / Fold change /veh C5orf56 (11738088_a_at) / RFU OLFML3 (11715873_a_at) / Fold change /veh OLFML3 (11715873_a_at) / RFU LOC100653217 /// NTM (11731650_a_at) / Fold change /veh LOC100653217 /// NTM (11731650_a_at) / RFU MAPK11 (11762145_a_at) / Fold change /veh MAPK11 (11762145_a_at) / RFU FIZ1 (11724087_x_at) / Fold change /veh FIZ1 (11724087_x_at) / RFU OASL (11726364_x_at) / Fold change /veh OASL (11726364_x_at) / RFU SOX15 (11748057_x_at) / Fold change /veh SOX15 (11748057_x_at) / RFU CD79A (11719716_a_at) / Fold change /veh CD79A (11719716_a_at) / RFU HIST1H1D (11736915_at) / Fold change /veh HIST1H1D (11736915_at) / RFU CASKIN2 (11723855_a_at) / Fold change /veh CASKIN2 (11723855_a_at) / RFU LOC730098 (11760151_x_at) / Fold change /veh LOC730098 (11760151_x_at) / RFU OR4N2 (11742367_at) / Fold change /veh OR4N2 (11742367_at) / RFU PRRT2 (11749266_a_at) / Fold change /veh PRRT2 (11749266_a_at) / RFU SNX32 (11753110_a_at) / Fold change /veh SNX32 (11753110_a_at) / RFU CDHR5 (11726645_a_at) / Fold change /veh CDHR5 (11726645_a_at) / RFU RCAN1 (11760418_a_at) / Fold change /veh RCAN1 (11760418_a_at) / RFU FAM167A (11723789_a_at) / Fold change /veh FAM167A (11723789_a_at) / RFU FAM26E (11764081_at) / Fold change /veh FAM26E (11764081_at) / RFU ISYNA1 (11749810_s_at) / Fold change /veh ISYNA1 (11749810_s_at) / RFU ACY1 (11761880_at) / Fold change /veh ACY1 (11761880_at) / RFU 11764098_at / Fold change /veh 11764098_at / RFU SAMD14 (11745864_x_at) / Fold change /veh SAMD14 (11745864_x_at) / RFU NPB (11741838_a_at) / Fold change /veh NPB (11741838_a_at) / RFU TMPRSS6 (11731388_a_at) / Fold change /veh TMPRSS6 (11731388_a_at) / RFU KRTAP10-2 (11738614_at) / Fold change /veh KRTAP10-2 (11738614_at) / RFU ARHGAP8 /// PRR5-ARHGAP8 (11727945_x_at) / Fold change /veh ARHGAP8 /// PRR5-ARHGAP8 (11727945_x_at) / RFU KRTAP5-7 /// NADSYN1 (11734609_at) / Fold change /veh KRTAP5-7 /// NADSYN1 (11734609_at) / RFU RASL12 (11751679_a_at) / Fold change /veh RASL12 (11751679_a_at) / RFU CDKN2B (11736163_a_at) / Fold change /veh CDKN2B (11736163_a_at) / RFU PRF1 (11729649_at) / Fold change /veh PRF1 (11729649_at) / RFU, ZNF638 /// ZNF638-IT1 / Fold change vs veh, ZNF638 /// ZNF638-IT1 / RFU, PANK3 / Fold change vs veh, PANK3 / RFU, SH3YL1 / Fold change vs veh, SH3YL1 / RFU, ZEB2 / Fold change vs veh, ZEB2 / RFU, NRIP1 / Fold change vs veh, NRIP1 / RFU, PTTG1IP / Fold change vs veh, PTTG1IP / RFU, CAPN2 / Fold change vs veh, CAPN2 / RFU, MED14 / Fold change vs veh, MED14 / RFU, SNORA58 / Fold change vs veh, SNORA58 / RFU, C1orf63 / Fold change vs veh, C1orf63 / RFU, LRRFIP1 / Fold change vs veh, LRRFIP1 / RFU, NDUFAF7 / Fold change vs veh, NDUFAF7 / RFU, SLC12A2 / Fold change vs veh, SLC12A2 / RFU, IBTK / Fold change vs veh, IBTK / RFU, ESF1 / Fold change vs veh, ESF1 / Fold change vs veh, TMEM50B / RFU, TAOK1 / Fold change vs veh, TAOK1 / RFU, ACBD3 / Fold change vs veh, ACBD3 / RFU, TMA16 / Fold change vs veh, TMA16 / RFU, RWDD3 / Fold change vs veh, RWDD3 / RFU, BCAT1 / Fold change vs veh, BCAT1 / RFU, EDEM3 / Fold change vs veh, EDEM3 / RFU, TMEM33 / Fold change vs veh, TMEM33 / RFU, WDR75 / Fold change vs veh, WDR75 / RFU, AHCTF1 / Fold change vs veh, AHCTF1 / RFU, TFRC / Fold change vs veh, TFRC / RFU, ZDHHC17 / Fold change vs veh, ZDHHC17 / RFU, NOM1 / Fold change vs veh, NOM1 / RFU, ARL8B / Fold change vs veh, ARL8B / RFU, ZBTB11 / Fold change vs veh, ZBTB11 / RFU, TAMM41 / Fold change vs veh, TAMM41 / RFU, KIAA1704 /// LOC100996395 / Fold change vs veh, KIAA1704 /// LOC100996395 / RFU, ING1 / Fold change vs veh, ING1 / RFU, TRMT61B / Fold change vs veh, TRMT61B / RFU, FUBP3 / Fold change vs veh, FUBP3 / RFU, TP53 / Fold change vs veh, TP53 / RFU, TNKS2 / Fold change vs veh, TNKS2 / RFU, ZFP14 / Fold change vs veh, ZFP14 / RFU, ACTR2 / Fold change vs veh, ACTR2 / RFU, PPP3R1 / Fold change vs veh, PPP3R1 / RFU, PIK3R1 / Fold change vs veh, PIK3R1 / RFU, HNRNPA1 / Fold change vs veh, HNRNPA1 / RFU, RNF170 / Fold change vs veh, RNF170 / RFU, ZNF28 / Fold change vs veh, ZNF28 / RFU, RNGTT / Fold change vs veh, RNGTT / RFU, OGT / Fold change vs veh, OGT / RFU, BRD1 / Fold change vs veh, BRD1 / RFU, MARS / Fold change vs veh, MARS / RFU, ZNF655 / Fold change vs veh, ZNF655 / RFU, FAHD1 / Fold change vs veh, FAHD1 / RFU, BDP1 / Fold change vs veh, BDP1 / RFU, LRRCC1 / Fold change vs veh, LRRCC1 / RFU, ARID1A / Fold change vs veh, ARID1A / RFU, ZNF146 / Fold change vs veh, ZNF146 / RFU, ZNF330 / Fold change vs veh, ZNF330 / RFU, GPN3 / Fold change vs veh, GPN3 / RFU, C9orf123 / Fold change vs veh, C9orf123 / RFU, N4BP2L2 / Fold change vs veh, N4BP2L2 / RFU, ARFIP1 / Fold change vs veh, ARFIP1 / RFU, FAM179B / Fold change vs veh, FAM179B / RFU, BCL10 / Fold change vs veh, BCL10 / RFU, UHRF1BP1L / Fold change vs veh, UHRF1BP1L / RFU, BET1 / Fold change vs veh, BET1 / RFU, CNOT2 / Fold change vs veh, CNOT2 / RFU, ZNF268 / Fold change vs veh, ZNF268 / Fold change vs veh, ZNF507 / RFU, DGCR2 / Fold change vs veh, DGCR2 / RFU, WDSUB1 / Fold change vs veh, WDSUB1 / Fold change vs veh, HSP90B1 /// MIR3652 / RFU, ADSS / Fold change vs veh, ADSS / RFU, GK / Fold change vs veh, GK / RFU, ZNF148 / Fold change vs veh, ZNF148 / RFU, TAF9 / Fold change vs veh, TAF9 / RFU, SLC1A5 / Fold change vs veh, SLC1A5 / RFU, SLMO2 / Fold change vs veh, SLMO2 / RFU, ABCC4 / Fold change vs veh, ABCC4 / RFU, LOC101060439 /// RAP1B / Fold change vs veh, LOC101060439 /// RAP1B / RFU, RFX7 / Fold change vs veh, RFX7 / RFU, GTPBP10 / Fold change vs veh, GTPBP10 / RFU, CNEP1R1 / Fold change vs veh, CNEP1R1 / RFU, BIVM-ERCC5 /// ERCC5 / Fold change vs veh, BIVM-ERCC5 /// ERCC5 / RFU, ILF3 / Fold change vs veh, ILF3 / RFU 11762660_at / Fold change /veh 11762660_at / RFU VCAN (11757783_s_at) / Fold change /veh VCAN (11757783_s_at) / RFU DDX43 (11728927_at) / Fold change /veh DDX43 (11728927_at) / RFU KRT8 (11758188_x_at) / Fold change /veh KRT8 (11758188_x_at) / RFU NKD1 (11759106_at) / Fold change /veh NKD1 (11759106_at) / RFU SRD5A1 (11742802_a_at) / Fold change /veh SRD5A1 (11742802_a_at) / RFU TPSAB1 /// TPSB2 (11721975_s_at) / Fold change /veh TPSAB1 /// TPSB2 (11721975_s_at) / RFU GSTM3 (11746129_a_at) / Fold change /veh GSTM3 (11746129_a_at) / RFU IL23R (11737362_x_at) / Fold change /veh IL23R (11737362_x_at) / RFU TMEM51 (11727254_a_at) / Fold change /veh TMEM51 (11727254_a_at) / RFU PIWIL2 (11732686_x_at) / Fold change /veh PIWIL2 (11732686_x_at) / RFU ORM1 (11744905_x_at) / Fold change /veh ORM1 (11744905_x_at) / RFU CCDC152 (11743942_at) / Fold change /veh CCDC152 (11743942_at) / RFU ECM1 (11717891_a_at) / Fold change /veh ECM1 (11717891_a_at) / RFU IL23R (11748794_a_at) / Fold change /veh IL23R (11748794_a_at) / RFU TNFAIP8L3 (11732012_x_at) / Fold change /veh TNFAIP8L3 (11732012_x_at) / RFU MBOAT4 (11741988_at) / Fold change /veh MBOAT4 (11741988_at) / RFU 11764193_at / Fold change /veh 11764193_at / RFU TMEM53 (11763286_at) / Fold change /veh TMEM53 (11763286_at) / RFU MAGEB2 (11727129_at) / Fold change /veh MAGEB2 (11727129_at) / RFU TMEM200A (11744735_a_at) / Fold change /veh TMEM200A (11744735_a_at) / RFU CCDC152 (11751479_a_at) / Fold change /veh CCDC152 (11751479_a_at) / RFU FAM211A (11726209_a_at) / Fold change /veh FAM211A (11726209_a_at) / RFU RGS16 (11746705_a_at) / Fold change /veh RGS16 (11746705_a_at) / RFU VCAN (11755009_s_at) / Fold change /veh VCAN (11755009_s_at) / RFU RHOB (11743442_s_at) / Fold change /veh RHOB (11743442_s_at) / RFU RGS16 (11720943_a_at) / Fold change /veh RGS16 (11720943_a_at) / RFU RGS16 (11720944_at) / Fold change /veh RGS16 (11720944_at) / RFU, VPS4B / Fold change vs veh, VPS4B / RFU, CREB1 / Fold change vs veh, CREB1 / RFU, DNAJC13 / Fold change vs veh, DNAJC13 / RFU, GNAQ / Fold change vs veh, GNAQ / RFU, CDK5R1 / Fold change vs veh, CDK5R1 / RFU, ZRANB3 / Fold change vs veh, ZRANB3 / RFU, CUL4A / Fold change vs veh, CUL4A / RFU, CCNY / Fold change vs veh, CCNY / RFU, UFL1 / Fold change vs veh, UFL1 / RFU, COG3 / Fold change vs veh, COG3 / RFU, DIAPH2 / Fold change vs veh, DIAPH2 / RFU, SKA2 / Fold change vs veh, SKA2 / RFU, AFF3 / Fold change vs veh, AFF3 / RFU, LMF1 / Fold change vs veh, LMF1 / RFU, IPO11 / Fold change vs veh, IPO11 / RFU, DFFB / Fold change vs veh, DFFB / RFU, FOXP1 / Fold change vs veh, FOXP1 / RFU, CARD8 / Fold change vs veh, CARD8 / RFU, STRN3 / Fold change vs veh, STRN3 / RFU, ADK / Fold change vs veh, ADK / RFU, RASSF2 / Fold change vs veh, RASSF2 / RFU, WIPF1 / Fold change vs veh, WIPF1 / RFU, LARP1B / Fold change vs veh, LARP1B / RFU, RASA1 / Fold change vs veh, RASA1 / RFU, RB1 / Fold change vs veh, RB1 / RFU, PPFIA1 / Fold change vs veh, PPFIA1 / RFU, MAT2A / Fold change vs veh, MAT2A / RFU, CCT5 / Fold change vs veh, CCT5 / RFU, WDR92 / Fold change vs veh, WDR92 / RFU, CUX1 / Fold change vs veh, CUX1 / RFU, TTC7A / Fold change vs veh, TTC7A / RFU, TMEM135 / Fold change vs veh, TMEM135 / RFU, DEPTOR / Fold change vs veh, DEPTOR / RFU, CPM / Fold change vs veh, CPM / RFU, DNAJB6 / Fold change vs veh, DNAJB6 / RFU, CACNA2D3 / Fold change vs veh, CACNA2D3 / RFU, DTX4 / Fold change vs veh, DTX4 / RFU, TFCP2 / Fold change vs veh, TFCP2 / RFU, GMCL1 /// GMCL1P1 / Fold change vs veh, GMCL1 /// GMCL1P1 / RFU, AEBP2 / Fold change vs veh, AEBP2 / RFU, SNHG1 /// SNORD22 /// SNORD25 /// SNORD26 /// SNORD27 /// SNORD28 /// SNORD29 /// SNORD31 / Fold change vs veh, SNHG1 /// SNORD22 /// SNORD25 /// SNORD26 /// SNORD27 /// SNORD28 /// SNORD29 /// SNORD31 / Fold change (Aza/veh), C12orf56 (ProbeSet 11735607_a_at) / Fold change (ACY-1035/veh), C12orf56 (ProbeSet 11735607_a_at) / Fold change (Aza/veh), FGFR1OP (ProbeSet 11751329_s_at) / Fold change (ACY-1035/veh), FGFR1OP (ProbeSet 11751329_s_at) / Fold change (Aza/veh), VPS36 (ProbeSet 11739960_a_at) / Fold change (ACY-1035/veh), VPS36 (ProbeSet 11739960_a_at) / RFU SYPL1 (11715823_x_at) / Fold change /veh SYPL1 (11715823_x_at) / RFU IGFBP7 (11715501_s_at) / Fold change /veh IGFBP7 (11715501_s_at) / RFU REEP3 (11722064_at) / Fold change /veh REEP3 (11722064_at) / RFU IGLL1 (11728026_x_at) / Fold change /veh IGLL1 (11728026_x_at): dose or concentration left out as unconfirmed", "settings": "ProbeSet 11716865_a_at; LIST B"}
{"compound": "Nc1ncn([C@@H]2O[C@H](CO)[C@@H](O)[C@H]2O)c(=O)n1", "note": "[azacitidine]", "values": [{"measurement": "RFU, SLC1A5", "result": 258.33, "unit": "RFU"}]}
